Where “and” joins values, the source holds several entries; their conditions need not be identical. Equal entries are not always repeated. Inconclusive results are not listed. Positions of bridges follow the written chain, without caps; N, C: chain ends. Non-standard residues stand in square brackets, D forms with d. Residues, ends and D or L forms follow the SMILES beside them. Chains are numbered I, II in the order given. *: point of attachment. Quinoxaline2carbonyl = O=C(c1cnc2ccccc2n1)*; NMeV = CN[CH](C(=O)O)C(C)C; NMeC = CN[CH](CS)C(=O)O
System: nude mice, HT29 intrarenal xenograft, tumor weight T/C
Test: NCI In Vivo Anticancer Drug Screen. Data for tumor model HT29;CX-1 Human Adenocarcinoma (MER+) (intrarenal inoculation) in NU/NU Swiss (nude) mice
Conditions: endpoint: mean tumor weight change, higher = larger tumour
How it was run: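 T/C = treated-group value ÷ vehicle-group value, using tumor size or survival.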

[1] = dose: 1200.0 mg/kg/injection, schedule: Q04DX004 (sc), vehicle: suspension in saline
[2] = dose: 100.0 mg/kg/injection, schedule: Q04DX004 (sc), vehicle: Klucel (hydroxypropylcellulose) (HPC)

Question: Which T/C (dose: 112.0 mg/kg/injection, schedule: Q04DX003 (ip), vehicle: sodium bicarbonate) does the source give for O=C(O)Cc1cccc2c(=O)cc(-c3ccccc3)oc12 here?
Answer: 42 % of control

Question: What about the T/C (dose: 150.0 mg/kg/injection, schedule: Q04DX003 (ip), vehicle: sodium bicarbonate) of the same compound?
Answer: 90 % of control

Question: And the T/C (dose: 200.0 mg/kg/injection, schedule: Q01DX001 (ip), vehicle: sodium bicarbonate)?
Answer: 105 % of control

Question: And the T/C (dose: 200.0 mg/kg/injection, schedule: Q04DX003 (ip), vehicle: sodium bicarbonate)?
Answer: 46 % of control

Question: And the T/C (dose: 267.0 mg/kg/injection, schedule: Q01DX001 (ip), vehicle: sodium bicarbonate)?
Answer: 52 % of control

Question: How did the T/C (dose: 150.0 mg/kg/injection, schedule: Q04DX004 (sc), vehicle: suspension in saline) turn out when Cc1cc(NS(=O)(=O)c2ccc(N=Nc3cc(N=Nc4ccc(S(=O)(=O)Nc5cc(C)nc(C)n5)cc4)c4c(NC(=O)C(Cl)Cl)cccc4c3OC(=O)C(Cl)Cl)cc2)nc(C)n1 (tested in a mixture with another compound) was run?
Answer: 204 % of control

Question: And the T/C [1]?
Answer: 72 % of control

Question: Which T/C (dose: 36.0 mg/kg/injection, schedule: Q04DX004 (sc), vehicle: saline with Tween-80) does the source give for NC(=O)/C=C/C(=O)c1c(Cl)cccc1Cl here?
Answer: 52 % of control

Question: For CCC1(O)CC2CN(CCc3c([nH]c4ccccc34)C(C(=O)OC)(c3cc4c(cc3OC)N(C)C3C(O)(C(N)=O)C(O)C5(CC)C=CCN6CCC43C65)C2)C1 (configuration not stated) (tested in a mixture with another compound), which T/C (dose: 1.5 mg/kg/injection, schedule: Q04DX004 (sc), vehicle: water) is on record?
Answer: 87 % of control

Question: What about the T/C (dose: 12.0 mg/kg/injection, schedule: Q04DX004 (sc), vehicle: water) of the same compound?
Answer: -25 % of control

Question: CC(=O)O[C@@H]1CO[C@H]2O[C@H]3[C@@H](C(C=O)=C[C@H](O)[C@@H]4C5=C(C(C)C)CC[C@]5(C)CC[C@@]34C)[C@@]2(O)C1=O was tested. Which T/C (dose: 12.5 mg/kg/injection, schedule: Q04DX004 (sc), vehicle: Klucel (hydroxypropylcellulose) (HPC)) did it give?
Answer: 110 % of control

Question: And the T/C (dose: 25.0 mg/kg/injection, schedule: Q04DX004 (sc), vehicle: Klucel (hydroxypropylcellulose) (HPC))?
Answer: 83 % of control

Question: What about the T/C (dose: 50.0 mg/kg/injection, schedule: Q04DX004 (sc), vehicle: Klucel (hydroxypropylcellulose) (HPC)) of the same compound?
Answer: 76 % of control

Question: And the T/C [2]?
Answer: 58 % of control

Question: What does the source list for OCC1(CO)COC2(CCCCC2)N1?
Answer: T/C (dose: 600.0 mg/kg/injection, schedule: Q04DX004 (sc), vehicle: suspension in saline): 115 % of control; T/C [1]: 56 % of control; T/C (dose: 2400.0 mg/kg/injection, schedule: Q04DX004 (sc), vehicle: suspension in saline): 109 % of control

Question: With CCCCCCCCCCS(=O)CC(CO)NC(=O)/C=C/c1c(C)[nH]c(=O)[nH]c1=O (configuration not stated) as the compound, how does the T/C (dose: 9.38 mg/kg/injection, schedule: Q04DX004 (sc), vehicle: distilled water + Tween-80) read?
Answer: 90 % of control

Question: And the T/C (dose: 18.75 mg/kg/injection, schedule: Q04DX004 (sc), vehicle: distilled water + Tween-80)?
Answer: 100 % of control

Question: And the T/C (dose: 37.5 mg/kg/injection, schedule: Q04DX004 (sc), vehicle: distilled water + Tween-80)?
Answer: 80 % of control

Question: Which results are given for COC1C(O)CC(OC2CC(OC3CC(O[C@@H]4C(=O)c5c(cc6cc(OC7CC(OC8CC(O)C(O)C(C)O8)C(O)C(C)O7)c(C)c(O)c6c5O)C[C@H]4[C@H](OC)C(=O)[C@@H](O)[C@@H](C)O)OC(C)C3O)OC(C)C2O)OC1C (some centres not stated)?
Answer: T/C (dose: 0.75 mg/kg/injection, schedule: Q01DX010 (sc), vehicle: saline): 27 % of control and 50 % of control; T/C (dose: 1.5 mg/kg/injection, schedule: Q01DX010 (sc), vehicle: saline): 29 % of control and 41 % of control

Question: How did the T/C [2] turn out when CC1NC(=O)C(NC(=O)c2cnc3ccccc3n2)COC(=O)C(C(C)C)N(C)C(=O)C2CSSCC(C(=O)N(C)C(C(C)C)C(=O)OCC(NC(=O)c3cnc4ccccc4n3)C(=O)NC(C)C(=O)N2C)N(C)C1=O (configuration not stated) (I: Quinoxaline2carbonyl-SA[NMeC][NMeV] / II: Quinoxaline2carbonyl-SA[NMeC][NMeV]; ester I:1-II:C, I:C-II:1; disulfide I:3-II:3; configuration not given here) was run?
Answer: 115 % of control

Question: And the T/C (dose: 200.0 mg/kg/injection, schedule: Q04DX004 (sc), vehicle: Klucel (hydroxypropylcellulose) (HPC))?
Answer: 96 % of control

Question: What about the T/C (dose: 400.0 mg/kg/injection, schedule: Q04DX004 (sc), vehicle: Klucel (hydroxypropylcellulose) (HPC)) of the same compound?
Answer: 74 % of control

Question: For COc1cccc2c1C(=O)c1c(O)c3c(c(O)c1C2=O)C[C@@](O)(C(=O)CO)C[C@@H]3OC1CC(OC(C)=O)C(OC(C)=O)C(C)O1 (some centres not stated), which T/C (dose: 25.0 mg/kg/injection, schedule: Q01DX010 (sc), vehicle: distilled water + Tween-80) is on record?
Answer: 35 % of control

Question: Which results are given for COC(=O)[C@@]12OC[C@]34[C@H]([C@@H](O)[C@@H]1O)[C@@]1(C)CC(=O)C(O)=C(C)[C@@H]1C[C@H]3OC(=O)[C@H](OC(=O)/C=C(\C)C(C)C)[C@@H]24?
Answer: T/C (dose: 0.25 mg/kg/injection, schedule: Q04DX004 (sc), vehicle: saline + alcohol): 67 % of control; T/C (dose: 0.5 mg/kg/injection, schedule: Q04DX004 (sc), vehicle: saline with Tween-80): 83 % of control; T/C (dose: 1.0 mg/kg/injection, schedule: Q04DX004 (sc), vehicle: saline + alcohol): 49 % of control and 62 % of control; T/C (dose: 1.0 mg/kg/injection, schedule: Q04DX004 (sc), vehicle: saline with Tween-80): 89 % of control; T/C (dose: 2.0 mg/kg/injection, schedule: Q04DX004 (sc), vehicle: saline + alcohol): 53 % of control and 65 % of control; T/C (dose: 4.0 mg/kg/injection, schedule: Q04DX004 (sc), vehicle: saline + alcohol): 72 % of control

From PubChem BioAssay AID206 (DTP/NCI, 2004)
